Measurements: patent publication US6630128B1, “Porphyrin derivatives their use in photodynamic therapy and medical devices containing them” (Destiny Pharma Limited, priority 1999, dated 2003)
Like-named read-outs stand apart in the source and are kept apart here.

Experiments:
[1] = Singlet oxygen quantum yields (singlet oxygen phosphorescence at 1270 nm); assay type: physicochemical; settings: for quantum yield of singlet oxygen production, ΦΔ (cross-calibration of reference materials): cross-calibrated against TPP ΦΔ=0.58, present work
Procedure: The singlet oxygen quantum yields were determined by the direct measurement of singlet oxygen phosphorescence at 1270 nm. Samples were excited using the third harmonic of a Q-switched Nd:YAG (neodymium: yttrium-aluminium-garnet) Spectra Physics GCR-150-10 laser, operating at an excitation wavelength of 355 nm. A small fraction of the laser output was passed through a solution state filter containing aqueous cobalt (II) sulphate (CoSO4) to remove residual 532 and 1064 nm radiation and then down a 8 mm diameter liquid light guide (Oriel). For the measurements the end of the light guide was held against a 1 cm×1 cm fluorescence cuvette (Hellma) holding the sample. During the course of the experiments the incident laser energy for each measurement was determined using a pyroelectric detector held behind the sample. This detector was calibrated at the start of the experiment using a second calibrated energy meter (Gentec ED100). The laser energy was adjusted by placing cells containing aqueous sodium nitrite between the CoSO4 filter and the light guide. Typical pulse energies used were in the range of 25-500 μJ per pulse. Shot to shot noise was estimated to be <10% and sets of 20 shots gave an average value within <3%.
Phosphorescence from the sample was collected and passed through an interference filter centred at 1270 nm available from (Infra Red Engineering Ltd) and then focused onto the active area of a liquid nitrogen cooled germanium photodiode (North Coast EO-817P). The output from this device was AC coupled to a digital oscilloscope (Tektronix TDS-320) which digitised and averaged the transients. Typically 20 laser shots were used for each sample. The averaged data was transferred to a PC where it was stored and analysed.
A stock solution of each of the title compounds of Examples 67 to 81 was prepared by dissolving a small sample of the respective title compound in approximately 5 ml of toluene (Fisher Scientific, Analytical grade). The exact concentrations of the stock solution was not determined.
A working solution of each of the title compounds of Examples 67 to 81 was prepared by diluting the respective stock solution with toluene to give an absorbance of 0.100±0.005 at 355 nm when placed in a ultraviolet/visible spectrometer (ATI-Unicam UV-2) compared to a reference cell containing the pure toluene solvent. The ultraviolet/visible spectrum of each sample was also recorded over the range 300-700 nm.
All of the data were recorded at ambient temperature, 20-23° C., and the solutions were aerated. The singlet oxygen emission decay was recorded for each sample using 5 laser energies and the data for each measurement were fitted to an exponential decay of the form I(t)=A.exp(−t/τ), where I(t) is the measured intensity of singlet oxygen phosphorescence at time t, A is the intensity extrapolated back to t=0 (ie when the laser fires), and τ is the lifetime of singlet oxygen. A typical decay for the title compound of Example 78 in toluene excited at 355 nm using a pulse energy of 365 μJ, where A=19.6 and τ=27.8 μs, is shown in FIG. 2.
A plot of A versus the incident laser energy was drawn for each sample and the slope determined. The slope of such a graph is proportional to the singlet oxygen quantum yield. An example of a plot showing the linear relationship between the singlet oxygen emission intensity and the laser energy for the title compound of Example 78 and meso-tetraphenylporphyrin (TPP) is shown in FIG. 3.
The experiments were carried out using batches of 5 samples of the working solution of each of the title compounds of 67 to 81 plus one reference sample meso-tetraphenylporphyrin (TPP). Each run was repeated at least once. The data sets obtained for each sample were within ±5% of the mean value.
The dominant sources of error in the experiment include the shot-to-shot fluctuations in the laser and the difference in absorbances of the samples at the excitation wavelength. The values have an error of ±10%. […]

[2] = Fluorescence quantum yields (corrected emission spectra, relative to TPP); assay type: physicochemical; settings: excitation wavelength 355 nm, emission 550-800 nm
Procedure: Mass spectra were recorded on a Finnigan MAT TSQ 700 triple quadrupole mass spectrometer equipped with an […]. The matrix-assisted laser desorption/ionization mass spectra of the porphyrins were obtained using a dithranol matrix. FAB-MS spectra were obtained using a 3-nitrobenzyl alcohol (NOBA) matrix. ^1H-NMR spectra were measured at 60 MHz on a Jeol JNM-PMX60 spectrometer, at 270 MHz on a Jeol EX 270 spectrometer and at 300 MHx on a Varian Gemini-300 spectrometer in CDCl3 using TMS as an internal reference. Ultraviolet/visible spectra of solutions of compounds in tetrahydrofuran (THF) or toluene were measured using a Hitachi U-3000 spectrophotometer or a ATI-Unicam UV-2 spectrophotometer. Reflectance-absorbance infra red (RAIR) spectra were recorded on a BIO-RAD FTS 165 spectrophotometer. Fluorescence emission spectra were recorded using a Spex Fluorolog 3 spectrophotometer at an excitation wavelength of 355 nm, emission at 550 to 800 nm, with a bandpass of 2 nm.
The emission spectra were recorded using a Spex Fluorolog 3, excitation wavelength=355 nm, emission 550-800 nm, with a bandpass of 2 nm. A spectrum was recorded for each of the title compounds of Examples 67 to 81.
The fluorescence quantum yield for each of the title compounds of Examples 67 to 81 was determined by measuring the integral of the corrected emission spectra for each compound and calculated relative to TPP=0.11 (Handbook of Photochemistry Ed 2, Murov, Carmichael and Hug, Dekker 1993). The fluorescence quantum yield for each of the title compounds of Examples 67 to 81 are listed in Table 1; values for Zn TPP and Mg TPP are included in Table 1 for reference but they were not measured in this work.

[3] = reference values from Handbook of Photochemistry Ed 2; not measured in this work; cited from earlier work
[4] = literature values (Rossbroich et al. 1985; Wilkinson et al. 1993); cited from earlier work

Quantum yield of fluorescence, relative to TPP = 0.11 [2]	SMILES	ΦΔ (singlet oxygen quantum yield) ([1]; aerated toluene, excitation 355 nm, 20-23° C., relative to TPP ΦΔ=0.58)	τ, lifetime of singlet oxygen ([1]; toluene, excited at 355 nm, pulse energy 365 μJ (FIG. 2)) [μs]	Quantum yield of fluorescence, relative to TPP = 0.11 [3]	quantum yield of singlet oxygen production, ΦΔ, literature value [4]	quantum yield of singlet oxygen production, ΦΔ (cross-calibration of reference materials) [1]
0.04	C=CCCOCCCCCCCCCCCCOc1ccc(-c2c3nc(c(-c4cc(OCCCCCC)cc(OCCCCCC)c4)c4ccc([n-]4)c(-c4cc(OCCCCCC)cc(OCCCCCC)c4)c4nc(c(-c5cc(OCCCCCC)cc(OCCCCCC)c5)c5ccc2[n-]5)C=C4)C=C3)cc1.[Zn+2] [Example 78, 5-[4-(12-but-3-Enyloxy-dodecyloxy)-phenyl]-10,15,20-tris-(3,5-dihexyloxy-phenyl)-porphyrinato Zinc]	0.78 ± 0.08	27.8			
	C1=Cc2nc1c(-c1ccccc1)c1ccc([n-]1)c(-c1ccccc1)c1nc(c(-c3ccccc3)c3ccc([n-]3)c2-c2ccccc2)C=C1.[Mg+2] [Mg TPP, magnesium tetraphenylporphyrin]			0.15		
	C1=Cc2nc1c(-c1ccccc1)c1ccc([nH]1)c(-c1ccccc1)c1nc(c(-c3ccccc3)c3ccc([nH]3)c2-c2ccccc2)C=C1 [TPP, meso-tetraphenylporphyrin]			0.11	0.58	
	C1=Cc2nc1c(-c1ccccc1)c1ccc([n-]1)c(-c1ccccc1)c1nc(c(-c3ccccc3)c3ccc([n-]3)c2-c2ccccc2)C=C1.[Zn+2] [Zn TPP, zinc tetraphenylporphyrin]			0.04	0.73	0.77±0.07
	[Zn+2].c1ccc2c(c1)-c1nc-2nc2[n-]c(nc3nc([n-]c4nc(n1)-c1ccccc1-4)-c1ccccc1-3)c1ccccc21 [zinc phthalocyanine, reference compound]				0.50	0.46±0.05
